The record followed here is article PMC4077815, “Modulation of Phosphorylation of Tocopherol and Phosphatidylinositol by hTAP1/SEC14L2-Mediated Lipid Exchange” (PLoS ONE, 2014).

Experiment [1] concerns the target T1, recombinant PI3Kγ/p110γ (phosphatidylinositol-3-kinase gamma) (Homo sapiens, UniProt P48736).
T1 construct: gene PIK3CG; no regulatory subunit mentioned
Description: [γ-32P]-ATP phosphatidylinositol kinase assay, TLC. It counts as biochemical. The conditions noted are these: stimulator; no hTAP1; phosphatidylinositol 100 µM, ATP 20 µM, 4 mM MgCl2, pH 7.4, 37 °C.

Experiment [2] concerns the target T2, recombinant hTAP1 (human tocopherol associated protein 1, hSEC14L2) (Homo sapiens, UniProt O76054). Kind of experiment: isoelectric point mobility shift competition with phosphatidylinositol. The format is binding. Also on record: gene SEC14L2; N-terminal His tag, expressed in and purified from Escherichia coli. The conditions noted are these: read-out: 50% displacement of PI.

Experiment [3] deals with T2, recombinant hTAP1 (human tocopherol associated protein 1, hSEC14L2). Also on record: gene SEC14L2. Particulars: competitor of phosphatidylinositol; native isoelectric focusing gel.
Experiment [4] has as its target recombinant phosphatidylinositol-3-kinase gamma PI3Kγ/p110γ (UniProt P48736).

T1 sequence (P48736 whole entry): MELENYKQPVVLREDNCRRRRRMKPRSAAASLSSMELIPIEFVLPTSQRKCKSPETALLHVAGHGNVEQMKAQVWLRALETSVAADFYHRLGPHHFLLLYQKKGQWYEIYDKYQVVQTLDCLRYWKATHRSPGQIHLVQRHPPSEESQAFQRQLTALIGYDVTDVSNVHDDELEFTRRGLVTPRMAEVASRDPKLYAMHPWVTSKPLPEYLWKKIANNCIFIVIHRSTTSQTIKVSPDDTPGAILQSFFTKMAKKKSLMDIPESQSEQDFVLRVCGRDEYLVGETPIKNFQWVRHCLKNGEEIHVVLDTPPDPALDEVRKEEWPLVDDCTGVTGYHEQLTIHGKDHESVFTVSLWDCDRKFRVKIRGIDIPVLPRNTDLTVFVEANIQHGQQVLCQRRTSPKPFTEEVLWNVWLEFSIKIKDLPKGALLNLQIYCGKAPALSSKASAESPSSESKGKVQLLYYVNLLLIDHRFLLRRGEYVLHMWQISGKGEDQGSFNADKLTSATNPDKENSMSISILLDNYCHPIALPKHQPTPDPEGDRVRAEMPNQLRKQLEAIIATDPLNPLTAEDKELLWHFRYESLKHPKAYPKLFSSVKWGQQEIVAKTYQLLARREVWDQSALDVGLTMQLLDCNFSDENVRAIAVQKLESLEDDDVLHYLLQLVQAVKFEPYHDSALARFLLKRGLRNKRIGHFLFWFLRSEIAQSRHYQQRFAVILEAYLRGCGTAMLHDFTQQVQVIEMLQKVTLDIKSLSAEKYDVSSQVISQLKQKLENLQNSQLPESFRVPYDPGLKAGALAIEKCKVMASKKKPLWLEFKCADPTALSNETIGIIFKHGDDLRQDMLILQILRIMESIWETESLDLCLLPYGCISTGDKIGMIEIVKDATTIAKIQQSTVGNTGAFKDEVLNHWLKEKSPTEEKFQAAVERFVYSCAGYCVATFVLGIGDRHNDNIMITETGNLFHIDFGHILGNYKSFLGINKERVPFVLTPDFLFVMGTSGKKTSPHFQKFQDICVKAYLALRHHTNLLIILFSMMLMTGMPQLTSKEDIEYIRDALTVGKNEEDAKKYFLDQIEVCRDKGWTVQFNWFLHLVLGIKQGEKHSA
T2 sequence (O76054 whole entry): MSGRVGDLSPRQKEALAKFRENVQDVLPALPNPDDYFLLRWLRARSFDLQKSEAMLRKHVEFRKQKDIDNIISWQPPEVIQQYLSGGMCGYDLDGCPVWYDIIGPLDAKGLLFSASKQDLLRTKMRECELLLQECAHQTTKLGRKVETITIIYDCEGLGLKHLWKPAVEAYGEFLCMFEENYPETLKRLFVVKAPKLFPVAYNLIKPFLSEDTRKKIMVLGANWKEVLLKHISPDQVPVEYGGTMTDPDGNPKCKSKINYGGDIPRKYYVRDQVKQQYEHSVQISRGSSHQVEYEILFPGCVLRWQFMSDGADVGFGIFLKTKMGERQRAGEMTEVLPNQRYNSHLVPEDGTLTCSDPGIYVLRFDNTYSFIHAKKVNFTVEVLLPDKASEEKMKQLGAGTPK
recombinant human tocopherol associated protein 1, sequence (O76054 whole entry): as above
recombinant phosphatidylinositol-3-kinase gamma PI3Kγ/p110γ, sequence (P48736 whole entry): as the sequence (P48736 whole entry) above

For the compound `Cc1c(C)c2c(c(C)c1O)CC[C@@](C)(CCC[C@H](C)CCC[C@H](C)CCCC(C)C)O2` [RRR-α-tocopherol], in experiment [1], the “% of control activity at 50 μM” value was “All four tocopherols stimulated PI3Kγ activity with similar efficiency (Figure 4A)”. Besides, in experiment [2], the IC50 is 50 µM.

For `Cc1c(O)cc2c(c1C)O[C@](C)(CCC[C@H](C)CCC[C@H](C)CCCC(C)C)CC2` [RRR-γ-tocopherol], the “% of control activity at 50 μM” value in experiment [1] was “All four tocopherols stimulated PI3Kγ activity with similar efficiency (Figure 4A)”.

On to `Cc1c(C)c2c(c(C)c1OP(=O)(O)O)CC[C@@](C)(CCC[C@H](C)CCC[C@H](C)CCCC(C)C)O2` [α-tocopheryl phosphate], for which, in experiment [1], the “% of control activity at 50 μM” value was “αTP stimulated PI3Kγ stronger than αT (Figure 4B)”. Moreover, in experiment [3], the “isoelectric point mobility shift competition with phosphatidylinositol” value is “the competition with αTP was slightly weaker (Figure 3B)”.

On to “recombinant human tocopherol associated protein 1 (from UniProt O76054 1-403) (natural protein)”, for which the in vitro PI3Kγ activity (phosphorylation of phosphatidylinositol with [γ-32P]-ATP, TLC) in the presence of recombinant hTAP1, relative to the control without hTAP1 in experiment [4] came to 38%.

Consider `Cc1cc(O)c(C)c2c1O[C@](C)(CCC[C@H](C)CCC[C@H](C)CCCC(C)C)CC2` [RRR-β-tocopherol], for which, in experiment [1], the “% of control activity at 50 μM” value is reported as “All four tocopherols stimulated PI3Kγ activity with similar efficiency (Figure 4A)”.

As to `Cc1cc(O)cc2c1O[C@](C)(CCC[C@H](C)CCC[C@H](C)CCCC(C)C)CC2` [RRR-δ-tocopherol], the “% of control activity at 50 μM” value in experiment [1] is reported as “All four tocopherols stimulated PI3Kγ activity with similar efficiency (Figure 4A)”.
